The source of these data is patent US20240376099A1, “COMPOUNDS AND COMPOSITIONS AS INHIBITORS OF ENDOSOMAL TOLL-LIKE RECEPTORS” (Novartis AG, priority 2016, published 2024).

The assay has as its target T1, TLR8 (Homo sapiens, UniProt Q9NR97).
T1 sequence (Q9NR97 27-1041): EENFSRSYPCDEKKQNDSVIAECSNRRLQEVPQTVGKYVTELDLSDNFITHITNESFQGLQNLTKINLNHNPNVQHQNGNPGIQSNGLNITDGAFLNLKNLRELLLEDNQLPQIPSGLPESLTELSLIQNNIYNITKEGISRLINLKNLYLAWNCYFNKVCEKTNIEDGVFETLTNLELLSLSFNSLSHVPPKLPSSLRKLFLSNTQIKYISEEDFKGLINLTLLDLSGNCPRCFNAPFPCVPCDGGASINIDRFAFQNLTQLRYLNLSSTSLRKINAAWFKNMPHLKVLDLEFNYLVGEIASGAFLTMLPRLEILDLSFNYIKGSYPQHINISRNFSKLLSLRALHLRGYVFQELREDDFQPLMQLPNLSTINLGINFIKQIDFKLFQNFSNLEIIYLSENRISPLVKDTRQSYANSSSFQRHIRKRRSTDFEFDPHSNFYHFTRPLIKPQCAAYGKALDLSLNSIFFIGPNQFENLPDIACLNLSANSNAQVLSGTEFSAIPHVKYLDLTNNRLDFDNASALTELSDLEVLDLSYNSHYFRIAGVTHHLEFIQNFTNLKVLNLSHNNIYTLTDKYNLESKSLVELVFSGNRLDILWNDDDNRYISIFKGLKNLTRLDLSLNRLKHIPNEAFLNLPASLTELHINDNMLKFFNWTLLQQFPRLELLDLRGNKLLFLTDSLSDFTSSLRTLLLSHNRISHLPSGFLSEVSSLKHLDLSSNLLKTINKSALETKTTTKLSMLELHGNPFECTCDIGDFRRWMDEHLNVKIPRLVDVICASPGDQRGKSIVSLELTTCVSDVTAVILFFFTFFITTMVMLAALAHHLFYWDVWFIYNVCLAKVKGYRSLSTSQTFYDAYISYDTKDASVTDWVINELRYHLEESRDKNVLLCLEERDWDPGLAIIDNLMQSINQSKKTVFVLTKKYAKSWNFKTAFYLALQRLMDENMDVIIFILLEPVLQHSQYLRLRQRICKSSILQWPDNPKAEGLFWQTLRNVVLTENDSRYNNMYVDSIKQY
The assay can be described thus: huPBMC TLR8 Antagonist IL-6 TR-FRET Assay. Conditions: human PBMCs stimulated with ssRNA40 1 μg/ml (DOTAP), 14-16 hrs; IL-6 TR-FRET read-out. Format: cell-based. On the set-up: Fresh blood was collected from normal human donors; endogenous in cells; host or cells: human PBMCs from fresh donor blood. In a few lines: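 Human PBMCs from fresh donor blood (150,000 cells/well) stimulated 14–16 h at 37 °C with DOTAP-complexed ssRNA40 (final 1 μg/ml for TLR8, 10 μg/mL for TLR7) or ODN2216 (final 0.3 μM, TLR9), 0.25% DMSO, ten-point 1/3 compound dilutions. Supernatant IL-6 read by HTRF (TLR8); IFNα by IFNα2b AlphaLISA (TLR7/TLR9).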
(In general: In TR-FRET formats the signal depends on donor and acceptor labels being close together.)

As to `Cc1cc(N2CCc3c(c(C)nn3CC34CCC(N)(CC3)CC4)C2)c2cnn(C)c2n1` [Compound No. 1, 4-((5-(1,6-dimethyl-1H-pyrazolo[3,4-b]pyridin-4-yl)-3-methyl-4,5,6,7-tetrahydro-1H-pyrazolo[4,3-c]pyridin-1-yl)methyl)bicyclo[2.2.2]octan-1-amine], the IC50 was found to be 236 nM.

`Cc1cc(N2CCc3c(c(C)nn3CC34CCC(N)(CC3)CC4)C2)c2cn[nH]c2n1` [Compound No. 2, 4-((3-methyl-5-(6-methyl-1H-pyrazolo[3,4-b]pyridin-4-yl)-4,5,6,7-tetrahydro-1H-pyrazolo[4,3-c]pyridin-1-yl)methyl)bicyclo[2.2.2]octan-1-amine]: the IC50 is greater than 10000 nM. `Cc1cc(N2CCc3c(c(C)nn3CC34CCC(N(C)C(=O)OC(C)(C)C)(CC3)CC4)C2)c2cnn(C)c2n1` [Compound No. 49, tert-butyl (4-((5-(1,6-dimethyl-1H-pyrazolo[3,4-b]pyridin-4-yl)-3-methyl-4,5,6,7-tetrahydro-1H-pyrazolo[4,3-c]pyridin-1-yl)methyl)bicyclo[2.2.2]octan-1-yl)(methyl)carbamate]: the IC50 is greater than 10000 nM.

In the case of `CNC12CCC(Cn3nc(C)c4c3CCN(c3cc(C)nc5c3cnn5C)C4)(CC1)CC2` [Compound No. 50, 4-((5-(1,6-dimethyl-1H-pyrazolo[3,4-b]pyridin-4-yl)-3-methyl-4,5,6,7-tetrahydro-1H-pyrazolo[4,3-c]pyridin-1-yl)methyl)-N-methylbicyclo[2.2.2]octan-1-amine], the IC50 is 308 nM. As for `Cc1cc(N2CCc3c(c(C)nn3CC34CCC(NC(=O)OC5(C)CC5)(CC3)CC4)C2)c2cnn(C)c2n1` [Compound No. 51, 1-methylcyclopropyl (4-((5-(1,6-dimethyl-1H-pyrazolo[3,4-b]pyridin-4-yl)-3-methyl-4,5,6,7-tetrahydro-1H-pyrazolo[4,3-c]pyridin-1-yl)methyl)bicyclo[2.2.2]octan-1-yl)carbamate], the IC50 is greater than 10000 nM. With `COc1ccc(Cn2ncc3c(N4CCc5c(c(C)nn5CC56CCC(N)(CC5)CC6)C4)cc(C)nc32)cc1` [Compound No. 53, 4-((5-(1-(4-methoxybenzyl)-6-methyl-1H-pyrazolo[3,4-b]pyridin-4-yl)-3-methyl-4,5,6,7-tetrahydro-1H-pyrazolo[4,3-c]pyridin-1-yl)methyl)bicyclo[2.2.2]octan-1-amine], the IC50 was determined as 1140 nM. With `Cc1cc(N2CCc3c(c(C)nn3CC34CCC(N5CCCC5)(CC3)CC4)C2)c2cnn(C)c2n1` [Compound No. 58, 5-(1,6-dimethyl-1H-pyrazolo[3,4-b]pyridin-4-yl)-3-methyl-1-((4-(pyrrolidin-1-yl)bicyclo[2.2.2]octan-1-yl)methyl)-4,5,6,7-tetrahydro-1H-pyrazolo[4,3-c]pyridine] the figure was 53 nM; with `Cc1cc(N2CCc3c(c(C)nn3CC34CCC(N5CCOCC5)(CC3)CC4)C2)c2cnn(C)c2n1` [Compound No. 59, 4-(4-((5-(1,6-dimethyl-1H-pyrazolo[3,4-b]pyridin-4-yl)-3-methyl-4,5,6,7-tetrahydro-1H-pyrazolo[4,3-c]pyridin-1-yl)methyl)bicyclo[2.2.2]octan-1-yl)morpholine], 52 nM; with `COCCNC12CCC(Cn3nc(C)c4c3CCN(c3cc(C)nc5c3cnn5C)C4)(CC1)CC2` [Compound No. 69, 4-((5-(1,6-dimethyl-1H-pyrazolo[3,4-b]pyridin-4-yl)-3-methyl-4,5,6,7-tetrahydro-1H-pyrazolo[4,3-c]pyridin-1-yl)methyl)-N-(2-methoxyethyl)bicyclo[2.2.2]octan-1-amine], 31 nM. With `Cc1cc(N2CCc3c(c(C)nn3CC34CCC(N(C)C5COC5)(CC3)CC4)C2)c2cnn(C)c2n1` [Compound No. 77, N-(4-((5-(1,6-dimethyl-1H-pyrazolo[3,4-b]pyridin-4-yl)-3-methyl-4,5,6,7-tetrahydro-1H-pyrazolo[4,3-c]pyridin-1-yl)methyl)bicyclo[2.2.2]octan-1-yl)-N-methyloxetan-3-amine], the IC50 is 316 nM. For the molecule `Cc1nn(CC23CCC(N)(CC2)CC3)c2c1CN(c1ccnc(-c3ccc(C#N)cc3)c1)CC2` [Compound No. 84, 4-(4-(1-((4-aminobicyclo[2.2.2]octan-1-yl)methyl)-3-methyl-6,7-dihydro-1H-pyrazolo[4,3-c]pyridin-5(4H)-yl)pyridin-2-yl)benzonitrile], the IC50 turned out to be 831 nM. `Cc1cc(N2CCc3c(c(C)nn3CC34CCC(O)(CC3)CC4)C2)c2cnn(C)c2n1` [compound 46, 4-((5-(1,6-dimethyl-1H-pyrazolo[3,4-b]pyridin-4-yl)-3-methyl-4,5,6,7-tetrahydro-1H-pyrazolo[4,3-c]pyridin-1-yl)methyl)bicyclo[2.2.2]octan-1-ol]: the IC50 was greater than 10000 nM. The figure for `Cc1cc(N2CCc3nn(CC45CC(N)(C4)C5)c(C)c3C2)c2cnn(C)c2n1` [compound 52, 3-((5-(1,6-dimethyl-1H-pyrazolo[3,4-b]pyridin-4-yl)-3-methyl-4,5,6,7-tetrahydro-2H-pyrazolo[4,3-c]pyridin-2-yl)methyl)bicyclo[1.1.1]pentan-1-amine] is greater than 10000 nM; for `Cc1cc(N2CCc3c(c(C)nn3CC34CCC(NC5CCC5)(CC3)CC4)C2)c2cnn(C)c2n1` [compound 54, N-cyclobutyl-4-((5-(1,6-dimethyl-1H-pyrazolo[3,4-b]pyridin-4-yl)-3-methyl-4,5,6,7-tetrahydro-1H-pyrazolo[4,3-c]pyridin-1-yl)methyl)bicyclo[2.2.2]octan-1-amine] it is 74 nM. With `Cc1cc(N2CCc3c(c(C)nn3CC34CCC(NC(C)C)(CC3)CC4)C2)c2cnn(C)c2n1` [compound 55, 4-((5-(1,6-dimethyl-1H-pyrazolo[3,4-b]pyridin-4-yl)-3-methyl-4,5,6,7-tetrahydro-1H-pyrazolo[4,3-c]pyridin-1-yl)methyl)-N-isopropylbicyclo[2.2.]octan-1-amine] the figure was 420 nM; with `Cc1cc(N2CCc3c(c(C)nn3CC34CCC(NC(C)CO)(CC3)CC4)C2)c2cnn(C)c2n1` (stereo not drawn) [compound 56, 2-((4-((5-(1,6-dimethyl-1H-pyrazolo[3,4-b]pyridin-4-yl)-3-methyl-4,5,6,7-tetrahydro-1H-pyrazolo[4,3-c]pyridin-1-yl)methyl)bicyclo[2.2.2]octan-1-yl)amino)propan-1-ol], 292 nM; with `CCNC12CCC(Cn3nc(C)c4c3CCN(c3cc(C)nc5c3cnn5C)C4)(CC1)CC2` [compound 57, 4-((5-(1,6-dimethyl-1H-pyrazolo[3,4-b]pyridin-4-yl)-3-methyl-4,5,6,7-tetrahydro-1H-pyrazolo[4,3-c]pyridin-1-yl)methyl)-N-ethylbicyclo[2.2.]octan-1-amine], 110 nM. As for `Cc1cc(N2CCc3c(c(C)nn3CC34CCC(N5CCC5)(CC3)CC4)C2)c2cnn(C)c2n1` [compound 64, 1-((4-(azetidin-1-yl)bicyclo[2.2.2]octan-1-yl)methyl)-5-(1,6-dimethyl-1H-pyrazolo[3,4-b]pyridin-4-yl)-3-methyl-4,5,6,7-tetrahydro-1H-pyrazolo[4,3-c]pyridine], the concentration for half-maximal inhibition (IC50) worked out at 115 nM. For the molecule `CCOCCNC12CCC(Cn3nc(C)c4c3CCN(c3cc(C)nc5c3cnn5C)C4)(CC1)CC2` [compound 71, 4-((5-(1,6-dimethyl-1H-pyrazolo[3,4-b]pyridin-4-yl)-3-methyl-4,5,6,7-tetrahydro-1H-pyrazolo[4,3-c]pyridin-1-yl)methyl)-N-(2-ethoxyethyl)bicyclo[2.2.2]octan-1-amine], the IC50 is 14 nM. Turning to `CCOCCN(CCOCC)C12CCC(Cn3nc(C)c4c3CCN(c3cc(C)nc5c3cnn5C)C4)(CC1)CC2` [compound 72, 4-((5-(1,6-dimethyl-1H-pyrazolo[3,4-b]pyridin-4-yl)-3-methyl-4,5,6,7-tetrahydro-1H-pyrazolo[4,3-c]pyridin-1-yl)methyl)-N,N-bis(2-ethoxyethyl)bicyclo[2.2.2]octan-1-amine], the IC50 is 102 nM.

In the case of `Cc1cc(N2CCc3c(c(C)nn3CC34CCC(N5C[C@@H](O)[C@@H](O)C5)(CC3)CC4)C2)c2cnn(C)c2n1` [compound 74, (3S,4R)-1-(4-((5-(1,6-dimethyl-1H-pyrazolo[3,4-b]pyridin-4-yl)-3-methyl-4,5,6,7-tetrahydro-1H-pyrazolo[4,3-c]pyridin-1-yl)methyl)bicyclo[2.2.2]octan-1-yl)pyrrolidine-3,4-diol], the IC50 amounted to 158 nM.

The term IC50 denotes the concentration that gives 50% inhibition.
